Literature values in paper PMC4258163 (Bioorganic & medicinal chemistry letters, 2014).

Experiments:
[1] = systemic administration, mice
animal model of anxiety = conditions: versus selective FAAH or TRPV1 inhibitors

Compound | excess of anandamide in the blood of patients (osteoarthritis pain; patients treated with the inhibitor) | Efficacy in treating osteoarthritis pain (osteoarthritis pain; phase II clinical trial, compared with naproxen) | Hyperthermia [1] | Effectiveness in an animal model of anxiety (animal model of anxiety)
O=C(Nc1cccnn1)N1CCC(=Cc2cccc(Oc3ccc(C(F)(F)F)cn3)c2)CC1 [PF-04457845] | greater than 10 fold | lack of efficacy | – | –
CCCCC/C=C\C/C=C\C/C=C\C/C=C\CCCC(=O)NCCc1c[nH]c2ccc(O)cc12 [AA-5-HT, N-arachidonoyl serotonin] | – | – | did not cause hyperthermia | more effective
